Reference: patent publication US20260272907A1, “Therapeutic Tyrosine Kinase Inhibitors for Multiple Sclerosis” (Principia Biopharma Inc., priority 2022, published 2026)

Assays:
Type in all cases: in vivo, human
[1] = tested on: patients with relapsing multiple sclerosis; assay: Phase 2b dose-finding study: clinical laboratory tests, ECG, vital signs (PCSAs, ALT levels)
Protocol: Temperature, pulse rate, respiratory rate, and blood pressure are assessed. The same method for temperature measurement should be used throughout the study. Blood pressure and pulse measurements are assessed in sitting or supine position with a completely automated device. Same position measurements should be used throughout the study for the same participant. Manual techniques are used only if an automated device is not available. Caffeinated drinks to be avoided before blood pressure measurements. Blood pressure and pulse measurements should be preceded by at least 5 minutes of rest for the participant in a quiet setting without distractions (e.g., television, cell phones). Vital signs (to be taken before blood collection for laboratory tests) consist of 1 pulse, 3 blood pressure measurements (3 consecutive blood pressure readings are recorded at intervals of at least 1 minute), and respiratory rate. The average of the 3 blood pressure readings is recorded.
Single twelve-lead ECGs are obtained as outlined in the SOA (Table 1) using an ECG machine that automatically calculates the heart rate and measures PR, QRS, QT, and QTc intervals. At least one longer rhythm monitoring recording needs to be part of each ECG testing. The ECG is reviewed by a cardiologist for confirmation of abnormality and clinical evaluation. Refer to Example 1.4E for QTc withdrawal criteria and any additional QTc readings that may be necessary.
See Example 1.16 for the list of clinical laboratory tests to be performed and to the SoA (Table 1) for the timing and frequency. The Investigator will review the laboratory report, document this review, and record any clinically relevant changes occurring during the study in the AE section of the eCRF. Clinically significant abnormal laboratory findings are those that are not associated with the underlying disease, unless judged by the Investigator to be more severe than expected for the participant's condition. […] All protocol-required laboratory assessments, as defined in Example 1.16, are conducted in accordance with the laboratory manual and the SoA (Table 1). If laboratory values from non-protocol specified laboratory assessments performed at the institution's local laboratory require a change in participant management or are considered clinically significant by the Investigator (e.g., SAE or AE or dose modification), then the results are recorded in the eCRF.
The following definitions are applied to laboratory parameters, ECG, and vital sign results: • Potentially clinically significant abnormality (PCSA) values are defined as abnormal values considered medically important by the Sponsor according to predefined criteria/thresholds based on literature review and are defined by the Sponsor for clinical laboratory tests and vital signs. • Potentially clinically significant abnormality criteria determine which participants had at least 1 PCSA during the on-treatment period, taking into account all evaluations performed during the on-treatment period including unscheduled or repeated evaluations. The number of all such participants is the numerator for the on-treatment PCSA percentage
Additional tests are performed at any time during the study as determined necessary by the Investigator or required by local regulations.

CD19+ B-cell = assay: Phase 2b trial: plasma CD19+ B-cell count in the placebo run-out cohort; conditions: Cohort 1
Protocol: OUTCOMES: The outcomes evaluated in this example include measuring the incidence of relapse during 4-week placebo run-in and run-out, the number of new Gd-enhancing T1 lesions detected with magnetic resonance imaging (MRI) at Weeks 4, 8 and 16, the number of new or enlarging T2 lesions measured at Weeks 4, 8 and 16, and the plasma CD19+B-cell count measured in the placebo run-out cohort at baseline, 1 hour after the first dose, then at Week 12 and Week 16 (FIG. 3).

[2] = tested on: patients with relapsing multiple sclerosis; assay: Long-term safety extension: number of new Gd-enhancing T1-hyperintense lesions (MRI); conditions: for Number of new Gd-enhancing lesions, mean±SD: LTS W96
Protocol: (§1) In the current open-label extension Part B, all patients receive 60 mg/day. MRI outcomes include numbers of new Gd-enhancing and new/enlarging T2 lesions, T2 lesion volume change from baseline, slowly evolving lesions (SEL), and paramagnetic rim lesions (PRL).
(§2) The Week 0 value is from the last MRI obtained in the dose-finding study if performed within 6 weeks prior to Day 1 of the long-term safety study For some patients the Week 0 value began after a gap period ranging from 0-21 weeks. For patients where the gap period was 0 weeks, the Week 0 value began immediately after the completion of Week 16 of the dose-finding study. For patients where the gap period was greater than 6 weeks a new MRI was obtained prior to Day 1 of the long-term safety study.
(§3) If from Week 16 of the dose-finding study (Cohort 2), it is also included in Week 12. If from Week 16 of the dose-finding study (Cohort 1), it is after 4 weeks placebo run out.

[3] = tested on: patients with relapsing multiple sclerosis; assay: Long-term safety extension: T2 lesion volume change from baseline (MRI); conditions: for Volume of new or enlarging T2 lesions, Mean (SD): in cm³
Protocol: as §1, §2, §3

[4] = tested on: patients with relapsing multiple sclerosis; assay: Long-term safety extension: slowly evolving lesions (SEL) volume (MRI); conditions: W96
Protocol: as §1

[5] = tested on: patients with relapsing multiple sclerosis; assay: Long-term safety extension: paramagnetic rim lesions (PRL) count (MRI)
Protocol: as §1

In the case of `C=CC(=O)N1CCC[C@@H](n2c(=O)n(-c3ccc(Oc4ccccc4)cc3)c3c(N)nccc32)C1` [the BTK inhibitor, (R)-1-(1-acryloylpiperidin-3-yl)-4-amino-3-(4-phenoxyphenyl)-1H-imidazo[4,5-c]pyridin-2(3H)-one], the “ALT level of the participant with AESI” value ([1]; 30 mg group, Week 8 visit) was 105 U/L, the “ALT level of the participant with AESI” value ([1]; 30 mg group, within 4 days after the Week 8 visit, back to normal level) was 32 U/L and the “ALT level of the participant with AESI” value ([1]; 60 mg group, Week 4 visit, ULN 34 U/L) was 107 U/L. For the same compound, the “ALT level of the participant with AESI” value ([1]; 60 mg group, Week 12, back to normal level) was 28 U/L, the “PCSAs related to vital signs, labs and ECGs: relation to dose” value ([1]; reported in multiple treatment groups) was “no dose relationship” and the “Number of B cells in the peripheral circulation after placebo run-out” value (CD19+ B-cell; after the 4-week placebo run-out period) was “returned towards baseline level”. The “Number of B cells in the peripheral circulation after the first dose” value (CD19+ B-cell; within 1 hour after the first dose) was “increased”, the “Number of new GD-enhancing T1-Hyperintense lesions, Mean (SD)” value (shortened to “Number … (SD)”) ([2]; 5/60 mg, Week 0) was 1.13 (2.66) and the “Number of new GD-enhancing T1-Hyperintense lesions, Median” value (“Number … Median” below) ([2]; 5/60 mg, Week 0) was 0.00. For the same compound, the “Number … (SD)” value ([2]; 5/60 mg, Week 12) was 1.03 (2.57), the “Number … Median” value ([2]; 5/60 mg, Week 12) was 0.00 and the “Number of new Gd-enhancing lesions, mean±SD” value (“Number … mean±SD” for short) ([2]; 5/60-mg arm) was 0.85±2.5. For the same compound, the “Number … (SD)” value ([2]; 15/60 mg, Week 0) was 1.00 (1.88), the “Number … Median” value ([2]; 15/60 mg, Week 0) was 0.00 and the “Number … (SD)” value ([2]; 15/60 mg, Week 12) was 0.80 (1.49). For the same compound, the “Number … Median” value ([2]; 15/60 mg, Week 12) was 0.00, the “Number … mean±SD” value ([2]; 15/60-mg arm) was 0.41±0.91 and the “Number … (SD)” value ([2]; 30/60 mg, Week 0) was 1.68 (4.29). The “Number … Median” value ([2]; 30/60 mg, Week 0) was 0.00, the “Number … (SD)” value ([2]; 30/60 mg, Week 12) was 0.78 (3.36) and the “Number … Median” value ([2]; 30/60 mg, Week 12) was 0.00. For the same compound, the “Number … mean±SD” value ([2]; 30/60-mg arm) was 0.90±2.16, the “Number … (SD)” value ([2]; 60/60 mg, Week 0) was 0.35 (0.61) and the “Number … Median” value ([2]; 60/60 mg, Week 0) was 0.00. The “Number … (SD)” value ([2]; 60/60 mg, Week 12) was 0.13 (0.43), the “Number … Median” value ([2]; 60/60 mg, Week 12) was 0.00 and the “Number … mean±SD” value ([2]; 60/60-mg arm) was 0.31±0.66. The “Number … (SD)” value ([2]; All (N = 125), Week 0) was 1.04 (2.72), the “Number … Median” value ([2]; All (N = 125), Week 0) was 0.00 and the “Number … (SD)” value ([2]; All (N = 125), Week 12) was 0.69 (2.27). The “Number … Median” value ([2]; All (N = 125), Week 12) was 0.00, the Volume of new or enlarging T2 lesions, Median ([3]; 5/60 mg, Week 0) was 0.09 cm³ and the “Volume of new or enlarging T2 lesions, Mean (SD)” value (shortened to “Volume … (SD)”) ([3]; 5/60 mg, Week 0) was 1.28 (2.57). The Volume of new or enlarging T2 lesions, Median ([3]; 5/60 mg, Week 12) was 0.2 cm³, the “Volume … (SD)” value ([3]; 5/60 mg, Week 12) was 1.05 (1.70) and the Volume of new or enlarging T2 lesions, Median ([3]; 15/60 mg, Week 0) was 0.08 cm³. The “Volume … (SD)” value ([3]; 15/60 mg, Week 0) was 0.72 (1.86), the Volume of new or enlarging T2 lesions, Median ([3]; 15/60 mg, Week 12) was 0.2 cm³ and the “Volume … (SD)” value ([3]; 15/60 mg, Week 12) was 1.09 (1.61). For the same compound, the Volume of new or enlarging T2 lesions, Median ([3]; 30/60 mg, Week 0) was 0 cm³, the “Volume … (SD)” value ([3]; 30/60 mg, Week 0) was 0.48 (1.59) and the Volume of new or enlarging T2 lesions, Median ([3]; 30/60 mg, Week 12) was 0.04 cm³. For the same compound, the “Volume … (SD)” value ([3]; 30/60 mg, Week 12) was 0.69 (1.30), the “T2 lesion volume change, W96 vs baseline, mean±SD” value ([3]; 60/60 mg arm) was 0.38±2.11 cm3 and the Volume of new or enlarging T2 lesions, Median ([3]; 60/60 mg, Week 0) was 0 cm³. For the same compound, the “Volume … (SD)” value ([3]; 60/60 mg, Week 0) was 0.18 (0.38), the Volume of new or enlarging T2 lesions, Median ([3]; 60/60 mg, Week 12) was 0.06 cm³ and the “Volume … (SD)” value ([3]; 60/60 mg, Week 12) was 0.26 (0.48). The Volume of new or enlarging T2 lesions, Median ([3]; All (N = 125), Week 0) was 0 cm³, the “Volume … (SD)” value ([3]; All (N = 125), Week 0) was 0.67 (1.81) and the Volume of new or enlarging T2 lesions, Median ([3]; All (N = 125), Week 12) was 0.12 cm³. The “Volume … (SD)” value ([3]; All (N = 125), Week 12) was 0.80 (1.39), the “SEL volume, median (IQR)” value ([4]; 5/60-mg arm) was 247.5 (84-420) mm3 and the “SEL volume, median (IQR)” value ([4]; 15/60-mg arm) was 258 (66-906) mm3. The “SEL volume, median (IQR)” value ([4]; 30/60-mg arm) was 570 (133.5-1011) mm3, the “SEL volume, median (IQR)” value ([4]; 60/60-mg arm) was 244.5 (87-939) mm3 and the “Patients in whom PRL count remained unchanged” value ([5]; W96 vs baseline, all arms) was 18 patients. For the same compound, the “Patients with 1 PRL at baseline but none at W96” value ([5]; all arms) was 2 patients and the “Patients with 1-3 additional PRL at W96 vs baseline” value ([5]; none in the 60/60 mg arm) was 3 patients.
